“And” between values parts separate entries of the source, which are not always exact repeats. Identical values can stand only once. Counter-ions that a name gives are not always drawn. Like-named read-outs stand apart in the source and are kept apart here. One block for each compound: values may come before it.
Columns and labels:
NCI-28H cells [1] = assay: Example 21: cytotoxicity (MTS) assay, NCI-28H cells treated with doxorubicin, cisplatin, paclitaxel, talc alone, talc bound to each drug; assay type: cell-based; conditions: for AVERAGE reading: cells + DOX: NCI-28H, 72 hrs; for Average reading: cells + cisplatin: absorbance 490 nm; for Average reading: cells + cisplatin / % survival from untreated cells (cells + cisplatin): NCI-28H cells
NCI-28H cells [2] = assay: Example 22: cytotoxicity (MTS) assay, NCI-28H cells treated with carboplatin, mitomycin, gemcitabine, talc alone, talc bound to each drug; conditions: for % survival from untreated cells: cells + drug, carboplatin / Average reading: cells + drug, carboplatin / Average absorbance reading: cells + drug, gemcitabine / % survival cells: cells + drug only: NCI-28H cells; for Average reading: cells + drug, carboplatin: absorbance 490 nm; for Average absorbance reading: cells + drug, gemcitabine: 490 nm, Table 79; for % survival cells: cells + drug only: Table 80
[3] = Example 2: Avidin and Avidin-Rhodamine binding to talc after PBS and 0.2% EDTA washes, fluorescent microscope; conditions: 100 mg talc; 3x PBS, 3x 0.2% EDTA washes
Method: The resulting mixtures were then washed with PBS and then washed with 0.2% EDTA.
3. Mix 1 mL of 100 μM of Avidin with 500 μL of 30.3 μM of Avidin Rhodamine (keep lights off).
4. […] Mix well to bring the dry talc powder to evenly distributed reaction solution.
8. Place tubes on the rotator and incubate overnight at 4° C.
5. Continue to wash all “b” labeled tubes with 0.2% EDTA. Wash 3× in 0.5 mL EDTA.
7. View slides under fluorescent microscope.

[4] = Example 1: binding of Anti-Avidin FITC and Biotin Rhodamine to talc, fluorescence microscopy; conditions: 30 mg talc; FITC and Rhodamine filters
Excerpt: This combinant nanoparticle was observed under microscopy for efficiency and efficacy. 1. […] 4. […] 5. […] 3. […] 4. […] 7. […] PBS+0.05% Tween20). 9. Analyze under microscope using FITC filter and Rhodamine filter.

[5] = Example 25: non-specific binding of Biotin-Rhodamine to talc after washing with buffers of different pH, fluorescent assay 496/520 nm
Method: Plan: incubate talc with Biotin Rhodamine. Make washings using different pH buffers: PBS, TBS (pH 8.0), Citrate buffer (pH 4.8). Run fluorescent assay. 1. […] Label tubes as #1, #2, #3, #4. 2. Add to each tube 500 μL 1×PBS. 3. […] 4. Mix well, incubate all tubes for 1 hr at 4° C., rotator. Protect from light. 5. […] (Centrifuge speed −3200 rpm for 3 min) 7. Add to all tubes 200 μL PBS, mix well. 8. […] 9. Run fluorescent assay using settings excitation/emission as 496 nm/520 nm.

[6] = Example 9: binding of bleomycin to talc, fluorescent microscopy (DAPI filter); conditions: 50 mg talc, 1 or 100 μg/mL bleomycin
Method: 1. Reconstitute bleomycin by adding 100 μL of water to 1 mg of bleomycin. Get the concentration to 10 mg/mL and mix, keeping the drug at 4° C.
9. Incubate overnight at 4° C., constantly mixing it.
3. Wash tubes 3× with 1 mL of water.
4. After last wash, complete, remove the water and resuspend the pellet in Vectashield mounting medium for fluorescence.
6. Check slides under fluorescent microscope under DAPI filter.

NCI-28H cells [7] = conditions: 72 hrs
[8] = flow cytometry, after multiple PBS washes

Compound: COc1cccc2c1C(=O)c1c(O)c3c(c(O)c1C2=O)C[C@@](O)(C(=O)CO)C[C@@H]3O[C@H]1C[C@H](N)[C@H](O)[C@H](C)O1 [DOX, Doxorubicin Hydrochloride]
- AVERAGE reading: cells + DOX (NCI-28H cells [1]; DOX 0.2 μM): 0.89
- AVERAGE reading: cells + DOX (NCI-28H cells [1]; DOX 1 μM): 0.67
- AVERAGE reading: cells + DOX (NCI-28H cells [1]; DOX 5 μM): 0.63

Compound: N.N.O=C([O-])C1(C(=O)[O-])CCC1.[Pt+2] [carboplatin]
- % survival from untreated cells: cells + drug, carboplatin (NCI-28H cells [2]; carboplatin 0.006 μM): 90.84% and 94.28%
- Average reading: cells + drug, carboplatin (NCI-28H cells [2]; carboplatin 0.006 μM): 1.504
- % survival from untreated cells: cells + drug, carboplatin (NCI-28H cells [2]; carboplatin 0.8 μM): 85.98% and 87.53%
- Average reading: cells + drug, carboplatin (NCI-28H cells [2]; carboplatin 0.8 μM): 1.4238
- % survival from untreated cells: cells + drug, carboplatin (NCI-28H cells [2]; carboplatin 4 μM): 96.93% and 93.62%
- Average reading: cells + drug, carboplatin (NCI-28H cells [2]; carboplatin 4 μM): 1.605
- % survival from untreated cells: cells + drug, carboplatin (NCI-28H cells [2]; carboplatin 20 μM): 104.81% and 99.20%
- Average reading: cells + drug, carboplatin (NCI-28H cells [2]; carboplatin 20 μM): 1.7355
- % survival from untreated cells: cells + drug, carboplatin (NCI-28H cells [2]; carboplatin 100 μM): 83.82% and 79.53%
- Average reading: cells + drug, carboplatin (NCI-28H cells [2]; carboplatin 100 μM): 1.388
- % survival from untreated cells: cells + drug, carboplatin (NCI-28H cells [2]; carboplatin 500 μM): 37.38% and 35.14%
- Average reading: cells + drug, carboplatin (NCI-28H cells [2]; carboplatin 500 μM): 0.6189

Compound: N.N.[Cl][Pt][Cl] [cisplatin, Cisplatin]
- Average reading: cells + cisplatin (NCI-28H cells [1]; Cisplatin 0.0013 μM): 1.37
- Average reading: cells + cisplatin (NCI-28H cells [1]; Cisplatin 0.0064 μM): 1.19
- Average reading: cells + cisplatin (NCI-28H cells [1]; Cisplatin 0.8 μM): 1.23
- Average reading: cells + cisplatin (NCI-28H cells [1]; Cisplatin 4 μM): 1.18
- Average reading: cells + cisplatin (NCI-28H cells [1]; Cisplatin 20 μM): 0.48
- Average reading: cells + cisplatin (NCI-28H cells [1]; Cisplatin 100 μM): 0.59
- % survival from untreated cells (cells + cisplatin) (NCI-28H cells [1]; cisplatin 0.0013 (μM per Table 63)): 91.07%
- % survival from untreated cells (cells + cisplatin) (NCI-28H cells [1]; cisplatin 0.0064 (μM per Table 63)): 79.21%
- % survival from untreated cells (cells + cisplatin) (NCI-28H cells [1]; cisplatin 0.032 (μM per Table 63)): 76.66%
- % survival from untreated cells (cells + cisplatin) (NCI-28H cells [1]; cisplatin 0.16 (μM per Table 63)): 79.74%
- % survival from untreated cells (cells + cisplatin) (NCI-28H cells [1]; cisplatin 0.8 (μM per Table 63)): 82.09%
- % survival from untreated cells (cells + cisplatin) (NCI-28H cells [1]; cisplatin 4 (μM per Table 63)): 78.41%
- % survival from untreated cells (cells + cisplatin) (NCI-28H cells [1]; cisplatin 20 (μM per Table 63)): 31.99%
- % survival from untreated cells (cells + cisplatin) (NCI-28H cells [1]; cisplatin 100 (μM per Table 63)): 39.35%

Compound: Nc1ccn([C@@H]2O[C@H](CO)[C@@H](O)C2(F)F)c(=O)n1 [gemcitabine, Gemcitabine, reference compound]
- cytotoxicity to NCI-28H cells, conclusion (NCI-28H cells [2]): clear cytotoxic effect
- Average absorbance reading: cells + drug, gemcitabine (NCI-28H cells [2]; Gemcitabine 0.0026 uM): 2.034
- % survival cells: cells + drug only (NCI-28H cells [2]; Gemcitabine 0.0026 uM): 114.61%
- Average absorbance reading: cells + drug, gemcitabine (NCI-28H cells [2]; Gemcitabine 0.013 uM): 1.914
- % survival cells: cells + drug only (NCI-28H cells [2]; Gemcitabine 0.013 uM): 107.85%
- Average absorbance reading: cells + drug, gemcitabine (NCI-28H cells [2]; Gemcitabine 0.064 uM): 1.43
- % survival cells: cells + drug only (NCI-28H cells [2]; Gemcitabine 0.064 uM): 80.60%
- Average absorbance reading: cells + drug, gemcitabine (NCI-28H cells [2]; Gemcitabine 8 uM): 1.004
- % survival cells: cells + drug only (NCI-28H cells [2]; Gemcitabine 8 uM): 56.58%
- Average absorbance reading: cells + drug, gemcitabine (NCI-28H cells [2]; Gemcitabine 40 uM): 1.0663
- % survival cells: cells + drug only (NCI-28H cells [2]; Gemcitabine 40 uM): 60.09%
- Average absorbance reading: cells + drug, gemcitabine (NCI-28H cells [2]; Gemcitabine 200 uM): 0.9352
- % survival cells: cells + drug only (NCI-28H cells [2]; Gemcitabine 200 uM): 52.70%

Compound: Avidin-Rhodamine: Rhodamine Conjugated Avidin from Rockland [reference compound]
- binding to talc after washing [3]: remained bound to talc despite multiple washes

- binding to talc, microscopy [4]: binding to talc
- effect of pH of washing buffers on binding to talc ([5]; pH 4.8-8.0): pH does not affect the binding
- Average fluorescent signal (Rhodamine 110) ([5]; talc/Biotin washed with Citrate buffer, pH 4.8): 14027.61
- Average fluorescent signal (Rhodamine 110) ([5]; talc/Biotin washed with PBS): 13760.41
- Average fluorescent signal (Rhodamine 110) ([5]; talc/Biotin washed with TBS, pH 8.0): 12868.68
Compound: Biotin Rhodamine 110

Compound: Bleomycin sulfate
- fluorescent imaging of talc incubated with bleomycin [6]: no difference in fluorescent imaging between negative control and talc incubated with bleomycin
- % survival NCI-28H cells after treatment with BLEOMYCIN (NCI-28H cells [7]; Bleomycin 0.004 ug/ml): 92.41%
- % survival NCI-28H cells after treatment with BLEOMYCIN (NCI-28H cells [7]; Bleomycin 0.015 ug/ml): 88.25%
- % survival NCI-28H cells after treatment with BLEOMYCIN (NCI-28H cells [7]; Bleomycin 0.06 ug/ml): 93.38%
- % survival NCI-28H cells after treatment with BLEOMYCIN (NCI-28H cells [7]; Bleomycin 0.24 ug/ml): 91.86%
- % survival NCI-28H cells after treatment with BLEOMYCIN (NCI-28H cells [7]; Bleomycin 0.97 ug/ml): 86.19%
- % survival NCI-28H cells after treatment with BLEOMYCIN (NCI-28H cells [7]; Bleomycin 3.9 ug/ml): 71.05%
- % survival NCI-28H cells after treatment with BLEOMYCIN (NCI-28H cells [7]; Bleomycin 15.6 ug/ml): 74.60%
- % survival NCI-28H cells after treatment with BLEOMYCIN (NCI-28H cells [7]; Bleomycin 62.5 ug/ml): 68.76%
- % survival NCI-28H cells after treatment with BLEOMYCIN (NCI-28H cells [7]; Bleomycin 250 ug/ml): 47.13%
- % survival NCI-28H cells after treatment with BLEOMYCIN (NCI-28H cells [7]; Bleomycin 1000 ug/ml): 24.92%
- binding of bleomycin to talc [8]: binds to talc and remains on surface of talc even following multiple PBS washes

Source: US20160331853A1, “COMPOSITIONS FOR RADIOTHERAPY AND USES THEREOF” (The Trustees of Columbia University in the City of New York, priority 2014, published 2016)
